Laboratory results taken from PMC9727064, “Performance assessment and economic analysis of a human Liver-Chip for predictive toxicology” (Communications Medicine, 2022).
Like-named read-outs stand apart in the source and are kept apart here.

How the values were obtained:
[1] = system: human Liver-Chip (hepatocyte layer); assay: Liver-Chip immunofluorescence imaging (caspase 3/7, TMRM, AdipoRed/LipidTOX); assay type: cell-based; settings: for Immunofluorescent findings, donor one (Supplementary Figure 3) / Immunofluorescent findings, donor three (Supplementary Figure 3) / Immunofluorescent findings, donor two (Supplementary Figure 3): day 7 post-drug administration, hepatocyte layer, top channel; for Immunofluorescence staining result in words: caspase 3/7 (apoptosis) or TMRM (mitotoxicity), 7 days
Experimental: Chips were detached from pods and washed once with PBS. […] Afterwards, chips were washed with PBS and stored at 4 °C until staining. Following fixation, chips corresponding to low, medium, and high concentrations from each group were cut in half with a razor blade perpendicular to the co-culture channels. One half was used in the following staining protocol, while the other half was stored for future staining. All stains and washes utilized the bubble method, in which a small amount of air is flowed through the channel prior to bulk wash media to prevent a liquid-liquid dilution of the staining solution. […] Following 15 minutes of incubation at room temperature, each channel was washed with 200 µL of PBS (alternating channels, 2× for top and 3× for bottom). As an alternative lipid accumulation marker, 100 µL of HCS LipidTOX Deep Red (ThermoFisher, H34477) was diluted 1:1000 v/v in PBS with NucBlue counterstain and added to the top channel. After a 30 min incubation at room temperature, the chips were again allowed to reach room temperature before the channels were alternatively washed with 200 µL of PBS, the bottom channel undergoing three washes and the top channel undergoing two. Chips were then imaged using the Opera Phenix. Following lipid and DAPI staining and imaging, chips were stained with a […] (MRP2) antibody to visualize the bile canalicular structures characteristic of healthy Liver-Chips. […] Then, each channel was washed with 200 µL of PBS (alternating channels, 2× for top and 3× for bottom). […] Next, primary antibody Mouse anti-MRP2 (Abcam, ab3373) was prepared 1:100 in the original blocking buffer, diluted 1:4 in PBS. 100 µL of solution was added to each channel, and chips were stored overnight at 4 °C. The following day, each channel was washed with 200 µL of PBS (alternating channels, 2× for top and 3× for bottom). […] 100 µL of solution was added to each channel and chips incubated at room temperature, protected from light, for two hours. Then, each channel was washed with 200 µL of PBS (alternating channels, 2× for top and 3× for bottom). Chips were imaged immediately or stored at 4 °C until ready for imaging on the Opera Phenix. Chip replicates designated for live cell imaging were washed with PBS utilizing the bubble method. Chips were then cut in half perpendicular to the co-culture channels. […] The bottom chips halves were stained with NucBlue (Thermo) to visualize nuclei and Tetramethylrhodamine, methyl ester (TMRM) (ThermoFisher, I34361) to visualize active mitochondria. This staining panel was prepared in PBS with 5% FBS, with NucBlue at 2 drops per mL and TMRM at a 1:1000 ratio in original blocking buffer, diluted 1:4 in PBS. Chips were incubated in the dark at 37 °C for 30 min, and then each channel was washed with 200 µL of PBS (alternating channels, 2× for top and 3× for bottom). The chips were kept at 37 °C, protected from light, until ready for imaging with the Opera Phenix. Fluorescent confocal image acquisition was performed using the Opera Phenix High-Content Screening System and Harmony 4.9 Imaging and Analysis Software (PerkinElmer). Before acquisition, the Phenix internal environment was set to 37 °C and 5% CO2. […] Whole chips were placed directly into each slot, while top and bottom half chips were matched and combined in one chip slot. Chips were aligned flush with the adapter and one another. Any bubbles identified from visual inspection were washed out with PBS. Once ready, the stained chips were covered with transparent plate film to seal channel ports and loaded into the Phenix. […] Z-stacks were generated with 3.6 µm between slices for 28–32 planes so that the epithelium was located around the center of the stack. […] Raw images from fixed and live imaging were exported in TIFF format from the Harmony software. Using scripts written for FIJI (ImageJ), TIFFs across three color channels and multiple z-stacks were compiled into composite images for each field of view in each chip. […]

[2] = system: human Liver-Chip (primary human hepatocytes); assay: Liver-Chip alanine transaminase (ALT) release in top channel effluent (ELISA); assay type: cell-based; settings: for ALT change in words: Liver-Chip effluent
Text: Cycles 1 to 4 tested 6–8 concentrations in duplicate for each of 10–13 drugs. To determine which sampling strategy was optimal for cycles 1 to 4 (16 doses × 1 replicate, 8 × 2, 5 × 3, or 4 × 4), we generated three different “dose-response” synthetic datasets, each distorted by different noise levels (low, medium, or high). For each of these datasets, we performed curve-fitting analyses and calculated the Root Mean Square Error between the “true” and estimated IC50 parameter. […] Some drugs were also repeated across cycles (on different donors or at different concentrations) to ensure experimental robustness. However, to replicate a more typical study design likely to be carried out by scientists in the pharmaceutical industry, we created cycle 5 with 6 drugs, where each was tested in 4 concentrations in triplicate. For each cycle, chips were dosed with drug over 8 days (referred to as Day 0 through Day 7).
The drug dosing concentrations were determined from the unbound human Cmax of each drug. First, the expected fraction of drug unbound in media with 2% FBS was extrapolated from plasma binding data for each drug. Dosing concentrations were then back calculated such that the unbound fraction in media would reflect relevant multiples of unbound human Cmax (Supplementary Data 1).
On the first dosing day (Day 0), all chips were imaged using the ECHO microscope. Five hundred microliters of effluent was collected from all four reservoirs of the pod and placed in a labeled 96-well plate. After collection, all the remaining media was carefully aspirated before dosing with 3.8 mL of corresponding dosing solution. Dosing occurred on study days 0, 2, and 4 for chips flowing at 30 µL/h, and on days 0, 1, 2, 3, 4, 5, and 6 for chips flowing at 150 µL/h. Effluent collection occurred on days 1, 3, and 7.
Top channel outlet effluents were analyzed to quantify albumin and alanine transaminase (ALT) levels on days 1, 3, and 7 using sandwich ELISA kits (Abcam, Albumin ab179887, ALT ab234578) according to vendor-provided protocols. Frozen (−80 °C) effluent samples were thawed overnight at 4 °C prior to assay. The Hamilton Vantage liquid handling platform was used to manage effluent dilutions (1:500 for albumin, neat for ALT), preparation of standard curves, and addition of antibody cocktail. Absorbance at 450 nm was measured using the SynergyNeo Microplate Reader (BioTek).

[3] = lowest concentration causing an increase in ALT protein, donor 1
[4] = lowest concentration causing an increase in ALT protein, donor 2
[5] = lowest concentration causing an increase in ALT protein
[6] = expanded drug list, lowest concentration causing an increase in ALT release, donor 1
[7] = expanded drug list, lowest concentration causing an increase in ALT release, donor 2

| Structure (SMILES) | Immunofluorescent findings, donor one (Supplementary Figure 3) [1] | IF imaging Donor 1 ([1]; matched pair analysis) | IF imaging Donor 2 ([1]; matched pair analysis) | ALT Donor 1 [2, 3] | ALT Donor 2 [2, 4] | IF imaging Donor 1 ([1]; expanded drug list) | ALT Donor 1 [2, 6] | Immunofluorescent findings, donor two (Supplementary Figure 3) [1] | also measured |
| --- | --- | --- | --- | --- | --- | --- | --- | --- | --- |
| COC(c1ccccc1)(c1ccccc1)[C@H](Oc1nc(C)cc(C)n1)C(=O)O [Ambrisentan] | No findings | No findings | No findings | >300 multiples of the unbound human Cmax | >1000 multiples of the unbound human Cmax |  |  |  | Immunofluorescent findings, donor three (Supplementary Figure 3) [1]: No findings; IF imaging Donor 3 ([1]; matched pair analysis): No findings; ALT Donor 3 [2, 5]: >300 multiples of the unbound human Cmax |
| C=C[C@@H]1C[C@]1(NC(=O)[C@@H]1C[C@@H](Oc2ncc(OC)c3ccc(Cl)cc23)CN1C(=O)[C@@H](NC(=O)OC(C)(C)C)C(C)(C)C)C(=O)NS(=O)(=O)C1CC1 [Asunaprevir] |  |  |  |  |  | Apoptosis | > 1000 unbound human Cmax multiplier |  | Immunofluorescence staining result in words [1]: apoptosis-mediated cell death; ALT change in words [2]: no elevation of ALT |
| CC(C(=O)O)c1ccc2oc(-c3ccc(Cl)cc3)nc2c1 (centres unmarked) [Benoxaprofen] |  |  |  |  |  | Apoptosis | > 100 unbound human Cmax multiplier | Apoptosis | IF imaging Donor 2 ([1]; expanded drug list): Apoptosis; ALT Donor 2 [2, 7]: 100 unbound human Cmax multiplier |
| CCN(CC)C(=O)/C(C#N)=C/c1cc(O)c(O)c([N+](=O)[O-])c1 [Entacapone] | No findings | No findings |  | >300 multiples of the unbound human Cmax |  |  |  |  |  |
| O=c1[nH]c(=O)n([C@@H]2O[C@H](CO)[C@@H](O)[C@@H]2F)cc1I [FIRU] | No findings | No findings | Steatosis |  |  |  |  |  | ALT Donor 1 [2]: >300 multiples of the unbound human Cmax; ALT Donor 2 [2]: >300 multiples of the unbound human Cmax |
| O=c1[nH]c(=O)n([C@@H]2O[C@H](CO)[C@@H](O)[C@@H]2F)cc1I [Fialuridine] | No findings | No findings | Steatosis | >300 multiples of the unbound human Cmax | >300 multiples of the unbound human Cmax |  |  | Steatosis |  |
| CC(CCc1ccccc1)NCC(O)c1ccc(O)c(C(N)=O)c1 (centres unmarked) [Labetalol] | Apoptosis |  |  |  |  | Apoptosis | > 100 unbound human Cmax multiplier | Apoptosis | IF imaging Donor 2 ([1]; expanded drug list): Apoptosis; ALT Donor 2 [2, 7]: 100 unbound human Cmax multiplier |
| O=C(NC1CCN(CCCCC2(C(=O)NCC(F)(F)F)c3ccccc3-c3ccccc32)CC1)c1ccccc1-c1ccc(C(F)(F)F)cc1 [Lomitapide] | No findings |  |  |  |  | No findings | > 1000 unbound human Cmax multiplier |  |  |
| CCc1nn(CCCN2CCN(c3cccc(Cl)c3)CC2)c(=O)n1CCOc1ccccc1 [Nefazodone] | No findings | No findings |  | 300 multiples of the unbound human Cmax |  |  |  |  |  |
| Cc1cc2c(s1)Nc1ccccc1N=C2N1CCN(C)CC1 [Olanzapine] | Apoptosis | Apoptosis | No findings | >300 multiples of the unbound human Cmax | >300 multiples of the unbound human Cmax |  |  |  | Immunofluorescent findings, donor three (Supplementary Figure 3) [1]: No findings; IF imaging Donor 3 ([1]; matched pair analysis): No findings; ALT Donor 3 [2, 5]: >300 multiples of the unbound human Cmax |
| CCc1ccc(CCOc2ccc(CC3SC(=O)NC3=O)cc2)nc1 (centres unmarked) [Pioglitazone] | Apoptosis | Apoptosis | No findings | >300 multiples of the unbound human Cmax | >300 multiples of the unbound human Cmax |  |  | No findings |  |
| Cc1cc2c(cc1CC(=O)c1sccc1S(=O)(=O)Nc1onc(C)c1Cl)OCO2 [Sitaxsentan] | Mitotoxicity | Mitotoxicity | Mitotoxicity | 300 multiples of the unbound human Cmax | 300 multiples of the unbound human Cmax |  |  | Mitotoxicity | Immunofluorescence staining result in words [1]: concentration-dependent decrease in TMRM staining; Immunofluorescent findings, donor three (Supplementary Figure 3) [1]: Mitotoxicity; IF imaging Donor 3 ([1]; matched pair analysis): Mitotoxicity; ALT Donor 3 [2, 5]: 100 multiples of the unbound human Cmax |
| Cc1cn([C@H]2C=C[C@@H](CO)O2)c(=O)[nH]c1=O [Stavudine] | No findings |  |  |  |  | No findings | 300 unbound human Cmax multiplier | Mitotoxicity | IF imaging Donor 2 ([1]; expanded drug list): Mitotoxicity; ALT Donor 2 [2, 7]: > 300 unbound human Cmax multiplier |
| Nc1c2c(nc3ccccc13)CCCC2 [Tacrine] | Apoptosis |  |  |  |  | Apoptosis | > 300 unbound human Cmax multiplier |  | Immunofluorescence staining result in words [1]: increased caspase 3/7 staining; IF imaging Donor 2 ([1]; expanded drug list): Apoptosis; ALT change in words [2]: not associated with any release of ALT; ALT Donor 2 [2, 7]: > 1000 unbound human Cmax multiplier |
